Measured values: patent US7781596B1, “Substituted 2-phenylbenzimidazoles, the production thereof and their use” (Abbott Laboratories, priority 1998, dated 2010)
Structures can show the parent of a compound that is named as a salt. Where two headings read alike, the source gives them in different places. Blank lines part the entries; values can stand above or below the molecule they belong to.

Key:
circulatory failure = settings: S. Cuzzocrea et al., Br. J. Pharmacol. 1997, 121, 1065-1074; cited from earlier work
[1] = pH 5
Procedure: (§1) If the measured substance is not in the form of a water-soluble salt, it was dissolved in the minimum amount of dimethyl sulfoxide and then diluted with water (final dimethyl sulfoxide concentration≦1%), after which the pH was again adjusted.

[2] = Determination of the solubility in water; settings: solution adjusted to pH 5 to 6 with sodium acetate, DMSO <=1% if not a water-soluble salt
Procedure: as §1

SMILES: NC(=O)c1cccc(N)c1 [3-aminobenzamide]
effects in a model of circulatory failure (circulatory failure): protective effects

solubility in water [1]: > 0.5%
SMILES: CCN(CC)CCOc1ccc(-c2nc3c(C(N)=O)cccc3[nH]2)cc1 [Example 2, 2-(4-(2-(N,N-Diethylamino)eth-1-yloxy)phenyl)benzimidazole-4-carboxamide×2 hydrochloride]

solubility in water [2]: < 0.01%
SMILES: COc1ccc(-c2nc3cccc(C(N)=O)c3[nH]2)cc1 [NU 1076]
